Here are results for 11 compounds from ChEMBL document CHEMBL1201862, “PubChem BioAssay data set” (2004).

Assay in all cases: inhibition of tumour cell growth, NCI panel, 48 h
Experiment [1] concerns ACHN.
The subject of experiment [2] is CAKI-1.
Experiment [3] has as its system EKVX.
The test system of experiment [4] is HCT-15.
Experiment [5] concerns HOP-92.
Experiment [6] deals with Hs-578T.
For experiment [7], the system named is KM12.
Experiment [8] has as its system MCF7.
For experiment [9], the system named is MDA-MB-435.
Experiment [10] has as its system NCI-H460.
Experiment [11] deals with NCI-H522.
In experiment [12] the test system is OVCAR-4.
Experiment [13] deals with RPMI-8226.
Experiment [14] relates to RXF 393.
Experiment [15] deals with SF-268.
The subject of experiment [16] is SK-MEL-5.
In experiment [17] the test system is TK-10.
Experiment [18] has as its system U-251.
Experiment [19] has as its system UACC-62.
Experiment [20] relates to SK-MEL-28.

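Following 48 hours of exposure in 96-well plates, responses at five concentrations were used to interpolate endpoints linearly. GI50: concentration for 50% inhibition of growth.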 Activity calls are given as the source filed them. Cut-off read from the data, not from the text of the source: active = GI50 up to about 1.1 µM and inactive = higher.

As for `CC1=CC(=O)/C(=C/Nc2nc(-c3ccc([N+](=O)[O-])cc3)cs2)C(=O)O1`, the GI50 is > 100 µM (inactive) in experiment [1]; > 100 µM (inactive) in experiment [2]; > 100 µM (inactive) in experiment [3]; over 100 µM in experiment [4]; > 100 µM (inactive) in experiment [5]; > 100 µM (inactive) in [6]. Moreover, the GI50 in [7] was > 100 µM (inactive); in [8], > 100 µM (inactive); in experiment [9], > 100 µM (inactive); in experiment [10], > 100 µM (inactive); in [11], 31.6 µM (inactive); in [12], > 100 µM (inactive). The GI50 in [13] is > 100 µM (inactive); in experiment [14] it was 27.7 µM (inactive); in [15] it was > 100 µM (inactive); in experiment [16] it was > 100 µM (inactive); in experiment [17] it was > 100 µM (inactive); in [18], > 100 µM (inactive). The GI50 in [19] was > 100 µM (inactive).
Take `CCc1cccc(CC)c1Nc1nc2c(s1)C(=O)c1ccccc1C2=O`: the GI50 in [1] was 17.6 µM (inactive); in [2], 16.4 µM (inactive); in [3], 16.3 µM (inactive); in experiment [4], 25.7 µM; in [5], 19.5 µM (inactive); in experiment [6] it was 22.2 µM (inactive). Moreover, the GI50 in [7] was 18.1 µM (inactive); in experiment [8] it was 22.4 µM (inactive); in experiment [9], 17.5 µM (inactive); in experiment [10], 16.9 µM (inactive); in experiment [11] it was 23.4 µM (inactive); in experiment [13] it was 24.7 µM (inactive). Moreover, the GI50 was 24.8 µM (inactive) in experiment [14]; 16.9 µM (inactive) in experiment [15]; 19.1 µM (inactive) in experiment [20]; 20.7 µM (inactive) in experiment [16]; 21.2 µM (inactive) in experiment [17]; 15.8 µM (inactive) in experiment [18]. Further, the GI50 in experiment [19] was 17.2 µM (inactive).
Regarding `O=C(Cc1nc2ccccc2[nH]c1=O)c1c[nH]c2ccccc12`, the GI50 is 10.5 µM (inactive) in [1]; 20.2 µM (inactive) in experiment [2]; 29.6 µM (inactive) in [3]; 8.18 µM in [4]; 23.2 µM (inactive) in experiment [5]; 49 µM (inactive) in experiment [6]. For the same compound, the GI50 was 5.77 µM (inactive) in experiment [7]; 11.6 µM (inactive) in [8]; 13.7 µM (inactive) in [9]; 6.58 µM (inactive) in experiment [10]; 14.8 µM (inactive) in experiment [11]; 11.4 µM (inactive) in experiment [12]. For the same compound, the GI50 in [13] was 6.92 µM (inactive); in experiment [14], 17.5 µM (inactive); in [15], > 100 µM (inactive); in [16] it was 10.8 µM (inactive); in experiment [17], 7.57 µM (inactive); in experiment [18], 13.7 µM (inactive). Further, the GI50 in experiment [19] was 13.6 µM (inactive).
`C=C(C(=O)OCC)C(=O)OCC`: the GI50 in [1] is > 100 µM (inactive); in experiment [2], > 100 µM (inactive); in experiment [3] it was > 100 µM (inactive); in [4], over 100 µM; in experiment [5], > 100 µM (inactive); in experiment [6], > 100 µM (inactive). Moreover, the GI50 in experiment [7], in experiment [8], in experiment [9], in experiment [10], in experiment [11] and in [13] was > 100 µM (inactive) in each case. The GI50 in experiment [14], in [15], in experiment [20], in experiment [16], in experiment [17] and in experiment [18] was > 100 µM (inactive) each time. Also, in experiment [19], the GI50 was > 100 µM (inactive).
For the compound `C=CCOc1ccc(C(=N/NC(=O)c2ccccc2)/N=N/c2ccccc2)cc1OC`, the GI50 in experiment [1] is > 100 µM (inactive); in experiment [2], > 100 µM (inactive); in experiment [3], > 100 µM (inactive); in experiment [4], 63.8 µM; in [5], 30.1 µM (inactive); in experiment [6], 70.8 µM (inactive). In addition, the GI50 in experiment [7] was 54.2 µM (inactive); in [8], > 100 µM (inactive); in [9], > 100 µM (inactive); in experiment [10], 40.6 µM (inactive); in experiment [11], 93.5 µM (inactive); in experiment [12], 89.9 µM (inactive). In addition, the GI50 is > 100 µM (inactive) in experiment [14]; > 100 µM (inactive) in experiment [15]; > 100 µM (inactive) in experiment [20]; 50.5 µM (inactive) in experiment [16]; > 100 µM (inactive) in experiment [17]; 79.4 µM (inactive) in [18]. For the same compound, in experiment [19], the GI50 is 71.1 µM (inactive).
As to `CC(=O)NC1C(OCc2ccccc2)OC(CO)C(O)C1OCC(=O)N[C@@H](C)C(=O)N[C@H](CCC(=O)NCCCNc1c2ccccc2nc2cccc([N+](=O)[O-])c12)C(N)=O` (some centres not stated), the GI50 in experiment [1] is 0.0182 µM (active); in [2], 0.0338 µM (active); in experiment [3], 0.0462 µM (active); in experiment [4], 0.0312 µM; in [5], 0.0295 µM (active); in experiment [6], 0.156 µM (active). Besides, the GI50 is 0.037 µM (active) in [7]; 0.018 µM (active) in experiment [8]; 0.0295 µM (active) in [9]; 0.0101 µM (active) in experiment [10]; < 0.0111 µM (active) in [11]; 0.0418 µM (active) in experiment [12]. Also, the GI50 in experiment [13] is 0.0411 µM (active); in experiment [14] it was 0.0352 µM (active); in experiment [20], 0.205 µM (active); in experiment [16] it was 0.0148 µM (active); in [17], 0.0253 µM (active); in experiment [18], 0.0349 µM (active). Further, the GI50 in [19] was 0.0321 µM (active).
Turning to `O=C(Nc1nc2ncn(CCOC(=O)c3ccccc3)c2c(=O)[nH]1)c1ccccc1`, the GI50 was > 81.1 µM (inactive) in [1]; 20.7 µM (inactive) in [2]; > 84.3 µM (inactive) in [3]; 4.7 µM in experiment [4]; 25.6 µM (inactive) in experiment [5]; 13.1 µM (inactive) in [6]. Besides, the GI50 in experiment [7] was 3.34 µM (inactive); in experiment [8], 4.4 µM (inactive); in experiment [9], 2.48 µM (inactive); in experiment [10], 8.43 µM (inactive); in [11], 2.75 µM (inactive); in experiment [13] it was 6.1 µM (inactive). For the same compound, the GI50 in [14] was 42.4 µM (inactive); in experiment [15], 26.2 µM (inactive); in experiment [20], 50.7 µM (inactive); in experiment [16], 5.51 µM (inactive); in experiment [17], > 100 µM (inactive); in [18], 7.24 µM (inactive). Besides, the GI50 in [19] was 9.12 µM (inactive).
As to `CCSSCS(C)(=O)=O`, the GI50 was 30.5 µM (inactive) in experiment [1]; 34.8 µM (inactive) in experiment [2]; 55.1 µM (inactive) in experiment [3]; 8.02 µM in experiment [4]; 16.9 µM (inactive) in [5]; 43.5 µM (inactive) in [6]. The GI50 in experiment [7] is 61.7 µM (inactive); in [8], 22.5 µM (inactive); in experiment [9] it was 22.6 µM (inactive); in experiment [10] it was 33.5 µM (inactive); in experiment [11], 18.9 µM (inactive); in experiment [12] it was 17.8 µM (inactive). Also, the GI50 in experiment [14] is 22.1 µM (inactive); in experiment [15], 44.5 µM (inactive); in [20], 58.5 µM (inactive); in [16] it was 32.7 µM (inactive); in [17], 36.3 µM (inactive); in [18], 36.4 µM (inactive). Also, the GI50 in experiment [19] was 60.5 µM (inactive).
Turning to `CN(C)C(=S)SCC(=O)Nc1ccccc1`, the GI50 in experiment [1] was > 100 µM (inactive); in [2], > 100 µM (inactive); in experiment [3] it was > 100 µM (inactive); in [4], over 100 µM; in experiment [5] it was > 100 µM (inactive); in [6], > 100 µM (inactive). The GI50 in experiment [7] was > 100 µM (inactive); in experiment [8] it was > 100 µM (inactive); in experiment [9] it was > 100 µM (inactive); in experiment [10], > 100 µM (inactive); in experiment [11], 57.9 µM (inactive); in [12], > 100 µM (inactive). The GI50 is 94.2 µM (inactive) in [13]; > 100 µM (inactive) in [14]; > 100 µM (inactive) in experiment [15]; 80.4 µM (inactive) in [20]; > 100 µM (inactive) in experiment [16]; > 100 µM (inactive) in experiment [18]. Moreover, the GI50 in experiment [19] was > 100 µM (inactive).
`OCC(CN1CCCCC1)(CN1CCCCC1)CN1CCCCC1`: the GI50 in experiment [1] is > 100 µM (inactive); in [2], > 100 µM (inactive); in experiment [3] it was > 100 µM (inactive); in [4], over 100 µM; in [5], > 100 µM (inactive); in [6] it was > 100 µM (inactive). Moreover, the GI50 in [7], in experiment [8], in experiment [9], in experiment [10], in [11] and in experiment [12] was > 100 µM (inactive) throughout. Also, the GI50 in experiment [14], in experiment [15], in [20], in [16], in experiment [17] and in experiment [18] was > 100 µM (inactive) each time. For the same compound, the GI50 in experiment [19] was > 100 µM (inactive).
`C=C1C(=O)[C@]23[C@H](O)[C@H]1CC[C@H]2[C@@]12CO[C@@]3(O)C[C@@H]1C(C)(C)CC[C@@H]2O` [MEGATHYRIN A]: the GI50 was 4.84 µM (inactive) in experiment [1]; 8.47 µM (inactive) in experiment [2]; 9.79 µM (inactive) in experiment [3]; 6.95 µM in experiment [4]; > 25 µM (inactive) in experiment [5]; 7.29 µM (inactive) in [6]. The GI50 in experiment [7] is 6.22 µM (inactive); in experiment [8] it was 6.18 µM (inactive); in [9] it was 4.12 µM (inactive); in experiment [11], 3.63 µM (inactive); in experiment [12], > 25 µM (inactive); in experiment [13], 7.4 µM (inactive). The GI50 in [14] was 4.03 µM (inactive); in experiment [15] it was 6.34 µM (inactive); in experiment [20], 7.14 µM (inactive); in [16] it was 13 µM (inactive); in experiment [17], 9.75 µM (inactive).
